The record followed here is patent US20250042884A1, “3-ARYLOXYL-3-FIVE-MEMBERED HETEROARYL PROPYLAMINE COMPOUND AND USE THEREOF” (Shanghai Leado Pharmatech Co. Ltd., priority 2018, published 2025).

Test [1] concerns the target TRPA1 (Mus musculus (Mouse), UniProt Q8BLA8). Description: IonWorks Barracuda (IWB) automated patch clamp detection of TRPA1 inhibitory activity. In kind it is cell-based. As to conditions: HEK293 cells stably expressing TRPA1; current induced by AITC; read-out: IC50 (μM), inhibitory activity on TRPA1 in the automated patch clamp detection test. As to the method:
The inhibitory activity of some compounds in the examples of the present invention (as shown in Table 1) on transient receptor potential channel protein TRPA1 was tested in this example. The compound of formula A (WO2010075353) was used as a positive control compound: […]
Ion Works Barracuda (IWB) automated patch clamp detection was used as test method: HEK293 cells stably expressing TRPA1 were placed in DMEM medium containing 15 μg/mL Blasticidin S HCl, 200 μg/mL Hygromycin B and 10% FBS in the T175 culture flask, and cultured in 37° C., 5% CO2 incubator. When the cell density reached about 80%, the culture medium was removed, rinsed with phosphate buffered saline (PBS) without calcium and magnesium. 3 mL of Trypsin was added to digest for 2 min, 7 mL of culture medium was added to terminate the digestion. The cells were collected to 15 mL centrifuge tube and centrifuged at 800 rpm for 3 min. After the supernatant was removed, the cells were added to appropriate volume of extracellular fluid for re-suspending, and the cell density was controlled at 2-3×10^6/mL for IWB experiment. Extracellular fluid formulation (in mM): 140 NaCl, 5 KCl, 1 MgCl2, 10 HEPES, 0.5 EGTA, 10 Glucose (pH 7.4); intracellular fluid formulation (in mM): 140 CsCl, 10 HEPES, 5 EGTA, 0.1 CaCl2, 1 MgCl2 (pH 7.2). 28 mg/mL of amphotericin B was freshly prepared with DMSO on the day of experiment, and then final concentration of 0.1 mg/mL was prepared with intracellular fluid.
Population patch clamp (PPC) plate was used in IWB experiment. The entire detection process was automatically carried out by the instrument. Extracellular fluid was added into 384 wells of PPC plate, and 6 µL of the intracellular fluid was added into plenum (under the PPC plate), 6 µL of cell fluid was added for sealing test, and finally the intracellular fluid in plenum was replaced with amphotericin B-containing intracellular fluid to establish a whole-cell recording mode after perforating sealed cells. The sampling frequency for recording TPRA1 current was 10 kHz, the cells were clamped at 0 mV, the voltage stimulation command (channel protocol) was a ramp voltage from −100 mV to +100 mV for 300 ms. This voltage stimulation was applied every 10 s, mTRPA1current was induced by 300 µM AITC.
Data recording and current amplitude measurement export were carried out by IWB software (version 2.5.3, Molecular Devices Corporation, Union City, CA). No statistics was recorded for holes with sealing impedance lower than 20 MQΩ. The original current data was corrected by software for leakage reduction. TRPA1 current amplitude was measured at +100 mV. […] If IC50 value of HC030031 exceeded 3 times the average IC50 value previously obtained on each plate, it would be re-tested. The dose-effect curve of compounds and IC50 were fitted and calculated by GraphPad Prism 5.02 (GraphPad Software, San Diego, CA).
Some compounds in the examples of the present invention were detected by lonWorks Barracuda (IWB) automated patch clamp detection method for IC50 inhibitory activity.
(Patch clamp records ionic current or voltage across a cell membrane.)

Test [2] deals with Sprague-Dawley rats. Description: Rat hot plate pain model (acute pain). In kind it is in vivo. As to the method: Sprague-Dawley male, mature and unmated rats were placed at hot and cold plate (product model: PE34, US IITC) with constant 53±0.1° C. Mice with painful response such as licking claw, shaking claw or slightly jumping within 10-30 s were selected, and mice which evaded and jumped were abandoned. […] The test compound was freshly prepared on the day of administration. 0.9% NaCl physiological saline solution was prepared as solvent for later use. Appropriate amount of test compound was added into required volume of physiological saline and fully suspended, and the concentration of prepared drug was 1 mg/ml. […] After administration, the latency of heat pain was measured at 0.5 h, 1 h and 2 h after administration. In order to prevent animals from being scalded on the hot plate, the maximum incubation time was set to 30 s. Maximum possible effect (MPE) % was used to evaluate analgesic effect of each compound, i.e., MPE %=[(Post drug latency−baseline latency)/(30−baseline latency)]×100. MPE % at different time points was recorded.

Test [3] deals with SD rats. In words: Rat SNL model, mechanical allodynia test (nerve pain). In kind it is in vivo. As to conditions: 1 h after administration, 100 mg/kg oral; control group 3.967 ± 0.775.
Method: Male SPF grade SD rats, weighed 150 g-180 g, were selected. Aseptic operation during surgery was performed. The animals were anesthetized with sodium pentobarbital (50 mg/kg, intraperitoneal injection). The surgical area of animal waist was shaved and the skin was disinfected three times with iodophor and 70% ethanol. After the skin was dried, the operation was started. Surgical knife was used to make a longitudinal incision at the back of the sacrum of the animal waist to expose the left paraspinal muscles, and stretcher was used to separate muscle tissue to expose the spine. The left spinal nerves L5 and L6 were separated and ligated with a 6-0 silk thread, and the wound was sutured. After the operation, the animals were placed on electrothermal pad, and 5 mL of saline was injected subcutaneously to prevent dehydration. After the animals were fully awakened and could move around freely, the animals were put back in the cage.
After the operation, the animals were adapted in the experimental environment for 15min/day for 3 days.
The animals were weighed to calculate the dose. […] After administration, mechanical allodynia test was performed. The rat was individually placed in a plexiglass box with a grid on the bottom of the box to ensure that the rat claw could be tested. The rats were allowed to adapt the environment for 15 min before test. After the adaptation was completed, the test fiber was used to test the center of the left hind claw of the rat. The test fiber comprises 8 test strengths: 3.61 (0.4 g), 3.84 (0.6 g), 4.08 (1 g), 4.31 (2 g), 4.56 (4 g), 4.74 (6 g), 4.93 (8 g), and 5.18 (15 g). […] During the test, rapid withdrawal of animal claw was recorded as pain response. When the test fiber was removed from animal skin, the withdrawal of animal claw was also recorded as pain response. If animal moved, the pain response was not recorded, and the test was repeated. […]
Mechanical allodynia was expressed as withdrawal threshold (PWT) in rat behavioral test, which was calculated with the following formula: […]
For test [4], the system named is ICR mice. In words: Mice acetic acid writhing pain model (visceral and inflammatory pain). The class given is in vivo. As to conditions: 10 mg/kg by gavage, 1 h before acetic acid; saline group 49 times. As to the method:
Male ICR mice, 22-25 g, were fasted but allowed to drink water freely for 2 h before administration. All ICR mice were weighed and grouped randomly, each group had >10 animals. […] The drug was administrated by gavage based on the weight of mice. 1.5% acetic acid solution (0.1 ml/10 g) was injected intraperitoneally 1 h after administration, and the number of times of visceral pain in each group was observed within 30 min. When concave abdomen, stretched trunk and hind claw, and high buttocks appeared, one number point was recorded. Finally, the number of appearance of the above phenomenon was counted within 30 minutes.
Background: In writhing tests, fewer writhes than in controls are read as antinociception.

Test [5] relates to C57BL/6 mice. In words: Mice formalin pain model (acute and inflammatory pain). The class given is in vivo. As to conditions: hydrochloride salt, blank vehicle 349.55 ± 43.09. From the text: 150 C57BL/6 mice (male, 9-week aged) were randomly divided into 15 groups, (each group had 10 mice) for the analgesic activity test of 3 compounds in the mice formalin pain model respectively: the compound I-1 group (compound I-1 prepared in Example 2 whose hydrochloride salt was used in the experiment), the S-duloxetine group (its hydrochloride salt was used in the experiment) and the compound C1 group (the compound C1 prepared in Comparative Example 1, whose hydrochloride salt was used in the experiment). Before the start of experiments, the mice were allowed to adapt to the experimental environment for 72 h with free feeding and drinking water. The test drugs were administrated by intraperitoneal injection at a dosage as follows:
Compound I-1 group: blank vehicle (blank saline control), 0.1 mg/kg, 0.5 mg/kg, 1 mg/kg, 5 mg/kg and 10 mg/kg;
S-duloxetine group: blank vehicle (blank saline control), 1 mg/kg, 5 mg/kg, 10 mg/kg and 20 mg/kg;
Compound C1 group: blank vehicle (blank saline control), 0.1 mg/kg, 0.5 mg/kg, 1 mg/kg, 5 mg/kg and 10 mg/kg.
After administration, the mice were placed in a transparent, ventilated plexiglass cylinder for 1 h, and then 20 μl of 4% formalin solution was injected into the left hind plantar of mice of each group by microinjector, claw pain response in mice were real-time recorded by a mini-camera. The time length of licking left claw were used as an indicator of pain response, licking time in 0-10 min (phase I) and 10-60 min (phase II) were observed and recorded, and the statistical analysis was conducted. The half effective dose (ED50) of 3 compounds were calculated: ED50 referred to the dose of the drug which decreased licking time by half as compared with the blank control group. The smaller the ED50 value was, the lower the effective analgesic dose of the compound was and the better the analgesic effect was.

Sequence of TRPA1 (Q8BLA8 whole entry): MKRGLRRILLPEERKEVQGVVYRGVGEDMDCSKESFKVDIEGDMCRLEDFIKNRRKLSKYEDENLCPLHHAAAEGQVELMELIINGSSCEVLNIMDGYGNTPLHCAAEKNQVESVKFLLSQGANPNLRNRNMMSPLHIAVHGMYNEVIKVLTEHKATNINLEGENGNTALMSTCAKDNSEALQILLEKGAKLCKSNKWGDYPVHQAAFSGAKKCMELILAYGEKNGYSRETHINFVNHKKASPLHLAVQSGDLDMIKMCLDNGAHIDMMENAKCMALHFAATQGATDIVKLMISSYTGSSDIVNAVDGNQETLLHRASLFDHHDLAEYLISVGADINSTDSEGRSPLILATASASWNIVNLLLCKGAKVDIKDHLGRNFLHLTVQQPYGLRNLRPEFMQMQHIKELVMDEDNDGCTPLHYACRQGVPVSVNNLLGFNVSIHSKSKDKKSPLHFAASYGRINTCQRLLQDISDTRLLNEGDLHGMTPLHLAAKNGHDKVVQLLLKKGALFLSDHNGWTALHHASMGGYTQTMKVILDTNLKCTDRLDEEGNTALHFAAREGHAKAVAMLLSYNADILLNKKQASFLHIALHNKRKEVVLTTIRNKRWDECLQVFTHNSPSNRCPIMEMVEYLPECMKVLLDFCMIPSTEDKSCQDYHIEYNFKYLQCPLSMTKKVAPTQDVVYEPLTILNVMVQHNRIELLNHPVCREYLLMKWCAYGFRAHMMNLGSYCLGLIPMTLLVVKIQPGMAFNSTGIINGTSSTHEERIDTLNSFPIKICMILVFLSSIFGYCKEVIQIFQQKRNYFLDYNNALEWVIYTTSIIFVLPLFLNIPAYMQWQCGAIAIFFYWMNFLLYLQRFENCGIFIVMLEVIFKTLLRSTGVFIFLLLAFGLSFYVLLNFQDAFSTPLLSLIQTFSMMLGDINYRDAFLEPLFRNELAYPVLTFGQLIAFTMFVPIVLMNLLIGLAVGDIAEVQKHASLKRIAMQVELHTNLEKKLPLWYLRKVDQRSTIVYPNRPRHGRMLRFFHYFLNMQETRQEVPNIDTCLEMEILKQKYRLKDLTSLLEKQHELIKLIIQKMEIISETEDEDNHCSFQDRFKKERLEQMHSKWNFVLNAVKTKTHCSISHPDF

The term IC50 denotes the concentration that gives 50% inhibition. For `CNCC[C@@H](Oc1cccc2ccccc12)c1cccs1` [R-duloxetine], the IC50 in test [1] was 21 to 50 µM.

In the case of `CNCC[C@@H](Oc1cccc2ccoc12)c1ccccc1` [Compound C2, (R)-3-(benzofuran-7-yloxy)-N-methyl-3-phenylpropyl-1-amine], the half-maximal inhibitory concentration (IC50) in test [1] was 11 to 20 µM.

Turning to `NCC1(CC(=O)O)CCCCC1` [Gabapentin, gabapentin], the MPE % in test [2] (0.5 h after administration, 100 mg/kg intraperitoneal) was 6.47 ± 5.49%; in test [2] (1 h after administration, 100 mg/kg intraperitoneal) it was 14.56 ± 6.18%; in test [2] (2 h after administration, 100 mg/kg intraperitoneal) it was 22.66 ± 4.93%. Moreover, the “PWT(g), claw withdrawal threshold” value in test [3] amounted to 6.352 ± 1.897 g.

Regarding `C[C@H]1CCCN1c1ccc(-c2csc(NC(=O)Cn3cnc4c3c(=O)n(C)c(=O)n4C)n2)cc1F` [Compound of formula A], in test [1], the IC50 was 51 to 100 µM.

Take `COc1ccc2c(c1)c(CC(=O)O)c(C)n2C(=O)c1ccc(Cl)cc1` [indomethacin]: the “number of appearance of writhing reactions (visceral pain) within 30 min” value in test [4] came out at 28 times.

In the case of `NCC[C@@H](Oc1cccc2ccoc12)c1cccs1` [Compound I-2, (R)-3-(benzofuran-7-yloxy)-3-(thiophen-2-yl)propyl-1-amine], the IC50 in test [1] lay within 6 to 10 µM.

`CNCC[C@H](Oc1cccc2ccoc12)c1cccs1` [Compound C1, (S)-3-(benzofuran-7-yloxy)-N-methyl-3-(thiophen-2-yl)propyl-1-amine]: the MPE % in test [2] (0.5 h after administration, 30 mg/kg intraperitoneal, hydrochloride salt) was 5.29 ± 1.56%; in test [2] (1 h after administration, 30 mg/kg intraperitoneal, hydrochloride salt), 14.20 ± 5.71%; in test [2] (2 h after administration, 30 mg/kg intraperitoneal, hydrochloride salt), 21.83 ± 2.45%. In addition, the “Licking claw time (s) in phase II (10-60 min)” value in test [5] (0.1 mg/kg intraperitoneal) is on record as 339.35 ± 27.90 s; in test [5] (0.5 mg/kg intraperitoneal), 368.16 ± 44.46 s; in test [5] (1 mg/kg intraperitoneal), 171.57 ± 39.69 s; in test [5] (5 mg/kg intraperitoneal) it was 158.02 ± 25.18 s; in test [5] (10 mg/kg intraperitoneal) it was 35.68 ± 11.77 s.

In the case of `CN(C)CC[C@@H](Oc1cccc2ccoc12)c1cccs1` [Compound I-3, (R)-3-(benzofuran-7-yloxy)-N,N-dimethyl-3-(thiophen-2-yl)propyl-1-amine], the IC50 in test [1] was in the range of 1 to 5 µM.

`CNCC[C@@H](Oc1cccc2ccoc12)c1ccsc1` [Compound I-5, (R)-3-(benzofuran-7-yloxy)-N-methyl-3-(thiophen-3-yl)propyl-1-amine]: in test [1], the IC50 lay within 1 to 5 µM.

Regarding `CNCC[C@@H](Oc1cccc2ccoc12)c1ccc(C)s1` [Compound I-6, (R)-3-(benzofuran-7-yloxy)-N-methyl-3-(5-methylthiophen-2-yl)propyl-1-amine], in test [1], the IC50 lay within 6 to 10 µM.

In the case of `CN1[C@H]2C[C@H](OC(=O)[C@H](CO)c3ccccc3)C[C@@H]1[C@@H](O)C2` [anisodamine], the “number of appearance of writhing reactions (visceral pain) within 30 min” value in test [4] stood at 27 times.

As to `CNCC[C@@H](Oc1cccc2occc12)c1cccs1` [Compound I-11, (R)-3-(benzofuran-4-yloxy)-N-methyl-3-(thiophen-2-yl)propyl-1-amine], the IC50 in test [1] was 6 to 10 µM.

In the case of `CNCC[C@@H](Oc1cccc2ccoc12)c1ccco1` [Compound I-8, (R)-3-(benzofuran-7-yloxy)-3-(furan-2-yl)-N-methylpropyl-1-amine], in test [1], the IC50 lay within 1 to 5 µM.

`CCNCC[C@@H](Oc1cccc2ccoc12)c1cccs1` [Compound I-4, (R)-3-(benzofuran-7-yloxy)-N-ethyl-3-(thiophen-2-yl)propyl-1-amine]: the IC50 in test [1] fell in the range of 1 to 5 µM.

`CNCC[C@@H](Oc1cccc2c1CCC2)c1cccs1` [Compound I-9, (R)-3-((2,3-dihydro-1H-inden-4-yl)oxy)-N-methyl-3-(thienyl-2yl)propyl-1-amine]: in test [1], the IC50 lay within 6 to 10 µM.
